Experimental data: the supplement of paper PMC7840683
Structures can show the parent of a compound that is named as a salt. ± gives the standard deviation of the averaged measurements.

Tested on: HepaRG
Test: LDH release cytotoxicity, % of total lysis control; higher = more cytotoxic
Settings: 48 h
Procedure, shortened: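 HepaRG cells from a single lot were plated on collagen I-coated 96-well plates and treated in duplicate for 48 h with eight-point half-log series of test chemicals, starting at 100 µM, in serum-free induction medium containing 0.5% DMSO. Total lysis wells were given 0.1% Triton X. LDH released into 50 µL of spent medium was measured as resorufin fluorescence with CytoTox-ONE on a Tecan Safire. Percent cytotoxicity was normalized to on-plate vehicle and total lysis controls and then averaged across duplicates.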

| SMILES | LDH release cytotoxicity (0.03162 µM) [%] | LDH release cytotoxicity (0.1 µM) [%] | LDH release cytotoxicity (0.3162278 µM) [%] | LDH release cytotoxicity (1 µM) [%] | LDH release cytotoxicity (3.16228 µM) [%] | LDH release cytotoxicity (10 µM) [%] | LDH release cytotoxicity (31.6228 µM) [%] | LDH release cytotoxicity (100 µM) [%] | LDH release cytotoxicity (0.031623 µM) [%] | LDH release cytotoxicity (0.316228 µM) [%] | LDH release cytotoxicity (0.0314647 µM) [%] | LDH release cytotoxicity (0.0995 µM) [%] | LDH release cytotoxicity (0.3146466 µM) [%] | LDH release cytotoxicity (0.995 µM) [%] | LDH release cytotoxicity (3.14647 µM) [%] | LDH release cytotoxicity (9.95 µM) [%] | LDH release cytotoxicity (31.4647 µM) [%] | LDH release cytotoxicity (99.5 µM) [%] |
| --- | --- | --- | --- | --- | --- | --- | --- | --- | --- | --- | --- | --- | --- | --- | --- | --- | --- | --- |
| Nc1cc(Cl)cc(C(=O)O)c1Cl [Chloramben] | 0.283 ± 2.4 | -1.57 ± 0.016 | -0.351 ± 2.3 | -0.882 ± 0.8 | -1.46 ± 0.83 | -0.217 ± 0.85 | -0.618 ± 0.29 | 0.291 ± 0.12 |  |  |  |  |  |  |  |  |  |  |
| ClC1=C(Cl)C2(Cl)C3C(Cl)C(Cl)CC3C1(Cl)C2(Cl)Cl (configuration not stated) [Chlordane] | -0.889 ± 1.7 | -0.0312 ± 0.73 | -1.4 ± 0.067 | -2.2 ± 0.83 | -1.5 ± 0.36 | -0.57 ± 0.073 | -0.758 ± 0.6 | 12 ± 4.7 |  |  |  |  |  |  |  |  |  |  |
| O=C(O)C1C(C(=O)O)C2(Cl)C(Cl)=C(Cl)C1(Cl)C2(Cl)Cl (configuration not stated) [Chlorendic acid] | -0.458 ± 0.46 | -0.878 ± 0.64 | -1.72 ± 0.51 | -1.15 ± 0.69 | -0.967 ± 0.21 | -0.519 ± 0.29 | -0.436 ± 0.8 | 0.638 ± 1.1 |  |  |  |  |  |  |  |  |  |  |
| CCOP(=S)(OCC)OC(Cl)C(Cl)(Cl)Cl (configuration not stated) [Chlorethoxyfos] | -1.98 ± 0.044 | -1.72 ± 0.32 | -0.757 ± 0.55 | -2.38 ± 0.29 | -1.72 ± 0.38 | -0.842 ± 0.087 | -1.18 ± 0.36 | -1.1 ± 0.44 |  |  |  |  |  |  |  |  |  |  |
| N=C1C=NN(c2ccccc2)C(=O)C1Cl (configuration not stated) [Chloridazon] | -1.49 ± 0.4 | -1.35 ± 0.3 | -0.939 ± 0.84 | -1.3 ± 0.23 | -0.697 ± 0.44 | -0.282 ± 0.67 | -0.579 ± 1.3 | 2.76 ± 0.26 |  |  |  |  |  |  |  |  |  |  |
| CCOC(=O)C(O)(c1ccc(Cl)cc1)c1ccc(Cl)cc1 [Chlorobenzilate] | -0.592 ± 1.7 | -1.28 ± 2.1 | -1.55 ± 0.35 | -2.17 ± 0.12 | -2.04 ± 1.4 | -1.17 ± 0.5 | -0.669 ± 0.95 | 3.46 ± 1.6 |  |  |  |  |  |  |  |  |  |  |
| COc1cc(Cl)c(OC)cc1Cl [Chloroneb] | -1.52 ± 0.84 | -0.787 ± 0.028 | -1.49 ± 0.12 | -2.31 ± 0.56 | -1.57 ± 0.11 | -0.979 ± 0.73 | -0.777 ± 0.15 | 0.671 ± 2.6 |  |  |  |  |  |  |  |  |  |  |
| N#Cc1c(Cl)c(Cl)c(Cl)c(C#N)c1Cl [Chlorothalonil] |  | -1.96 ± 3.7 |  | -2.72 ± 1.5 | -0.469 ± 1.9 | 4.78 ± 0.7 | 20.5 ± 1.1 | 48.7 ± 34 | -0.0289 ± 0.73 | -3.42 ± 0.39 |  |  |  |  |  |  |  |  |
| CN(C)CCCN1c2ccccc2Sc2ccc(Cl)cc21 [Chlorpromazine hydrochloride] |  | -1.97 ± 1.4 |  | -2.9 ± 0.0051 | -1.62 ± 1.7 | -1.31 ± 0.15 | 10.7 ± 2 | 77.6 ± 2.4 | -1.42 ± 0.91 | -1.98 ± 0.49 |  |  |  |  |  |  |  |  |
| CC(C)OC(=O)Nc1cccc(Cl)c1 [Chlorpropham] | -1.82 ± 0.15 | -0.0252 ± 1.6 | -2.28 ± 0.48 | -2.1 ± 0.63 | -1.45 ± 0.039 | -1.72 ± 0.48 | -1.01 ± 0.056 | 1.41 ± 0.48 |  |  |  |  |  |  |  |  |  |  |
| CCOP(=O)(OCC)Oc1nc(Cl)c(Cl)cc1Cl [Chlorpyrifos oxon] | -1.8 ± 0.21 | -1.33 ± 0.45 | -1.43 ± 0.73 | -1.55 ± 0.93 | -0.451 ± 0.67 | 0.221 ± 0.3 | 0.828 ± 0.99 | 2.9 ± 1.2 |  |  |  |  |  |  |  |  |  |  |
| COP(=S)(OC)Oc1nc(Cl)c(Cl)cc1Cl [Chlorpyrifos-methyl] |  |  |  |  |  |  |  |  |  |  | -1.653 ± 0.012 | -0.997 ± 0.086 | -0.895 ± 1.2 | -1.1 ± 0.81 | -1.09 ± 0.5 | -0.401 ± 0.0061 | 0.323 ± 0.39 | 3.84 ± 0.34 |
| CCOP(=S)(OCC)Oc1nc(Cl)c(Cl)cc1Cl [Chlorpyrifos] | 0.564 ± 0.48 | -0.761 ± 0.45 | -1.52 ± 0.69 | -1.1 ± 0.089 | -0.11 ± 0.44 | -0.852 ± 0.46 | -0.29 ± 0.55 | 0.964 ± 0.32 |  |  |  |  |  |  |  |  |  |  |
| COC(=O)c1c(Cl)c(Cl)c(C(=O)OC)c(Cl)c1Cl [Chlorthal-dimethyl] | -0.87 ± 0.31 | -0.884 ± 1.1 | -1.01 ± 0.16 | -0.618 ± 0.39 | -0.53 ± 0.67 | 0.0929 ± 0.87 | -0.208 ± 0.25 | 1.01 ± 0.28 |  |  |  |  |  |  |  |  |  |  |
| Cc1ccccc1COC1CC2(C(C)C)CCC1(C)O2 (configuration not stated) [Cinmethylin] | -0.203 ± 0.059 | -1.15 ± 0.52 | -1.3 ± 0.27 | -1.23 ± 0.093 | -1.09 ± 0.76 | -0.853 ± 0.059 | -0.668 ± 0.63 | 1.99 ± 1.4 |  |  |  |  |  |  |  |  |  |  |
| O=C(O)CC(O)(CC(=O)O)C(=O)O [Citric acid] | 0.134 ± 0.67 | -0.835 ± 0.31 | -0.0952 ± 0.86 | -1.29 ± 0.12 | -0.803 ± 0.025 | 0.951 ± 0.43 | 0.893 ± 0.17 | 0.958 ± 0.17 |  |  |  |  |  |  |  |  |  |  |
| CC(C)=CCCC(C)CCO (configuration not stated) [Citronellol] | -1.93 ± 0.69 | -2.94 ± 0.29 | -2.48 ± 0.3 | -2.8 ± 0.43 | -2.02 ± 0.57 | -2.14 ± 0.43 | -1.61 ± 0.76 | 0.398 ± 0.43 |  |  |  |  |  |  |  |  |  |  |
| Nc1nc(Cl)nc2c1ncn2C1CC(O)C(CO)O1 (configuration not stated) [Cladribine] | 1.26 ± 0.91 | 0.387 ± 1.1 | 1.42 ± 0.94 | 1.39 ± 0.35 | 3.14 ± 0.5 | 7.59 ± 0.6 | 10.9 ± 2 | 13.4 ± 1 |  |  |  |  |  |  |  |  |  |  |
| C#CCOC(=O)C(C)Oc1ccc(Oc2ncc(Cl)cc2F)cc1 (configuration not stated) [Clodinafop-propargyl] | -1.35 ± 0.68 | -1.3 ± 0.75 | -1.68 ± 0.23 | -0.544 ± 0.27 | -1.29 ± 0.021 | -0.851 ± 0.15 | -0.0728 ± 0.36 | 0.27 ± 0.25 |  |  |  |  |  |  |  |  |  |  |
